From PubChem BioAssay AID1963866 (Molecular Pharmacology Branch, DTP, NCI, 2024)
Calls of active or inactive are those of the source. Rule for the calls: active = viability on the fitted dose curve at most 10% of control; inactive = the rest.

System: PDC KRAS tumor spheroids with HUVEC/MSC, viability
Assay: Anticancer human tumor 349418-098-R-PDC patient-derived lung adenocarcinoma cell line growth inhibition [KRAS2]
Conditions: for IC50: curve of first compound; for viability, T/C: stronger effect = lower value
Method in brief: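 KRAS-mutant tumor cells were grown as spheroids with HUVEC endothelial cells and human MSCs as stroma. Targeted agents were tested alone and with KRAS pathway inhibitors. Doses started at or near clinical Cmax, or 10 microM, descending half-log.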

[1] = second compound 0.1 µM, first compound 0.0316 µM
[2] = second compound 0.1 µM, first compound 0.1 µM
[3] = second compound 0.1 µM, first compound 0.316 µM
[4] = second compound 0.1 µM, first compound 1 µM
[5] = second compound 0.1 µM, first compound 3.16 µM
[6] = second compound 0.1 µM, first compound 10 µM
[7] = second compound 0.316 µM, first compound 0.0316 µM
[8] = second compound 0.316 µM, first compound 0.1 µM
[9] = second compound 0.316 µM, first compound 0.316 µM
[10] = second compound 0.316 µM, first compound 1 µM
[11] = second compound 0.316 µM, first compound 3.16 µM
[12] = second compound 0.316 µM, first compound 10 µM
[13] = second compound 1 µM, first compound 0.0316 µM
[14] = second compound 1 µM, first compound 0.1 µM
[15] = second compound 1 µM, first compound 0.316 µM
[16] = second compound 1 µM, first compound 1 µM
[17] = second compound 1 µM, first compound 3.16 µM
[18] = second compound 1 µM, first compound 10 µM
[19] = second compound 3.16 µM, first compound 0.0316 µM
[20] = second compound 3.16 µM, first compound 0.1 µM
[21] = second compound 3.16 µM, first compound 0.316 µM
[22] = second compound 3.16 µM, first compound 1 µM
[23] = second compound 3.16 µM, first compound 3.16 µM
[24] = second compound 3.16 µM, first compound 10 µM
[25] = second compound 10 µM, first compound 0.0316 µM
[26] = second compound 10 µM, first compound 0.1 µM
[27] = second compound 10 µM, first compound 0.316 µM
[28] = second compound 10 µM, first compound 1 µM
[29] = second compound 10 µM, first compound 3.16 µM
[30] = second compound 10 µM, first compound 10 µM
[31] = second compound 0.1 µM, first compound 0.000316 µM
[32] = second compound 0.1 µM, first compound 0.001 µM
[33] = second compound 0.1 µM, first compound 0.00316 µM
[34] = second compound 0.1 µM, first compound 0.01 µM
[35] = second compound 0.316 µM, first compound 0.000316 µM
[36] = second compound 0.316 µM, first compound 0.001 µM
[37] = second compound 0.316 µM, first compound 0.00316 µM
[38] = second compound 0.316 µM, first compound 0.01 µM
[39] = second compound 1 µM, first compound 0.000316 µM
[40] = second compound 1 µM, first compound 0.001 µM
[41] = second compound 1 µM, first compound 0.00316 µM
[42] = second compound 1 µM, first compound 0.01 µM
[43] = second compound 3.16 µM, first compound 0.000316 µM
[44] = second compound 3.16 µM, first compound 0.001 µM
[45] = second compound 3.16 µM, first compound 0.00316 µM
[46] = second compound 3.16 µM, first compound 0.01 µM
[47] = second compound 10 µM, first compound 0.000316 µM
[48] = second compound 10 µM, first compound 0.001 µM
[49] = second compound 10 µM, first compound 0.00316 µM
[50] = second compound 10 µM, first compound 0.01 µM
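Note: spheroids exposed to compounds for seven days before readout.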

CC(C)NCC(C(=O)N1CCN(c2ncnc3c2C(C)CC3O)CC1)c1ccc(Cl)cc1 (stereo not given) + COc1cc2nc(C)nc(NC(C)c3cc(N)cc(C(F)(F)F)c3)c2cc1OC1CCOC1
IC50 (second compound 0.1 µM): 279 nM
IC50 (second compound 0.316 µM): 270 nM
IC50 (second compound 1 µM): 178 nM
IC50 (second compound 3.16 µM): 146 nM
IC50 (second compound 10 µM): < 31.6 nM
viability, T/C [1]: 98.1%
viability, T/C [2]: 73%
viability, T/C [3]: 49.4%
viability, T/C [4]: 23.1%
viability, T/C [5]: 10.2%
viability, T/C [6]: 6.37%
viability, T/C [7]: 85.4%
viability, T/C [8]: 77%
viability, T/C [9]: 44.8%
viability, T/C [10]: 18.9%
viability, T/C [11]: 7.59%
viability, T/C [12]: 6.32%
viability, T/C [13]: 93%
viability, T/C [14]: 66.4%
viability, T/C [15]: 31.4%
viability, T/C [16]: 22%
viability, T/C [17]: 6.85%
viability, T/C [18]: 3.87%
viability, T/C [19]: 71.9%
viability, T/C [20]: 58.3%
outcome [21]: inactive
viability, T/C [22]: 13.9%
viability, T/C [23]: 6.58%
viability, T/C [24]: 5.75%
viability, T/C [25]: 26.9%
viability, T/C [26]: 20.7%
viability, T/C [27]: 7.61%
viability, T/C [28]: 3.94%
viability, T/C [29]: 1.89%
viability, T/C [30]: 2.67%

CC(C)n1nc(-c2ccc3oc(N)nc3c2)c2c(N)ncnc21 + COc1cc2nc(C)nc(NC(C)c3cc(N)cc(C(F)(F)F)c3)c2cc1OC1CCOC1
IC50 (second compound 0.1 µM): 1.14 nM
IC50 (second compound 0.316 µM): 0.791 nM
IC50 (second compound 1 µM): 0.969 nM
IC50 (second compound 3.16 µM): 1.27 nM
IC50 (second compound 10 µM): < 0.316 nM
viability, T/C [31]: 118%
viability, T/C [32]: 54.2%
viability, T/C [33]: 16.5%
viability, T/C [34]: 10.9%
viability, T/C [1]: 9.94%
viability, T/C [2]: 7.92%
viability, T/C [35]: 106%
viability, T/C [36]: 35.6%
viability, T/C [37]: 15.3%
viability, T/C [38]: 8.46%
viability, T/C [7]: 8.96%
viability, T/C [8]: 8.23%
viability, T/C [39]: 102%
viability, T/C [40]: 48.5%
viability, T/C [41]: 16.2%
viability, T/C [42]: 9.11%
viability, T/C [13]: 8.55%
viability, T/C [14]: 7.48%
viability, T/C [43]: 99.7%
viability, T/C [44]: 58.4%
viability, T/C [45]: 18.1%
viability, T/C [46]: 8.93%
viability, T/C [19]: 8.73%
viability, T/C [20]: 7.6%
viability, T/C [47]: 34.2%
viability, T/C [48]: 11.4%
viability, T/C [49]: 4.75%
viability, T/C [50]: 5.13%
viability, T/C [25]: 4.36%
viability, T/C [26]: 5.51%

CC1(C)CCC(CN2CCN(c3ccc(C(=O)NS(=O)(=O)c4ccc(NCC5CCOCC5)c([N+](=O)[O-])c4)c(Oc4cnc5[nH]ccc5c4)c3)CC2)=C(c2ccc(Cl)cc2)C1 + COc1cc2nc(C)nc(NC(C)c3cc(N)cc(C(F)(F)F)c3)c2cc1OC1CCOC1
IC50 (second compound 0.1 µM): 1770 nM
IC50 (second compound 0.316 µM): 1860 nM
IC50 (second compound 1 µM): 1760 nM
IC50 (second compound 3.16 µM): 1560 nM
IC50 (second compound 10 µM): < 31.6 nM
viability, T/C [1]: 104%
viability, T/C [2]: 103%
viability, T/C [3]: 105%
viability, T/C [4]: 85.1%
viability, T/C [5]: 14%
viability, T/C [6]: 5.48%
viability, T/C [7]: 104%
viability, T/C [8]: 97.9%
viability, T/C [9]: 95.3%
viability, T/C [10]: 90.6%
viability, T/C [11]: 15.3%
viability, T/C [12]: 4.54%
viability, T/C [13]: 102%
viability, T/C [14]: 94.2%
viability, T/C [15]: 95.7%
viability, T/C [16]: 86.1%
viability, T/C [17]: 12.8%
viability, T/C [18]: 3.87%
viability, T/C [19]: 78.9%
viability, T/C [20]: 93.9%
viability, T/C [21]: 86%
viability, T/C [22]: 75.1%
viability, T/C [23]: 10.2%
viability, T/C [24]: 5.85%
viability, T/C [25]: 35.2%
viability, T/C [26]: 32.9%
viability, T/C [27]: 32.3%
viability, T/C [28]: 21.9%
viability, T/C [29]: 4.35%
viability, T/C [30]: 2.8%

CCN1CCN(Cc2ccc(Nc3ncc(F)c(-c4cc(F)c5nc(C)n(C(C)C)c5c4)n3)nc2)CC1 + COc1cc2nc(C)nc(NC(C)c3cc(N)cc(C(F)(F)F)c3)c2cc1OC1CCOC1
IC50 (second compound 0.1 µM): < 3.16 nM
IC50 (second compound 0.316 µM): 5.01 nM
IC50 (second compound 1 µM): 5.63 nM
IC50 (second compound 3.16 µM): < 3.16 nM
IC50 (second compound 10 µM): < 3.16 nM
viability, T/C [33]: 49.7%
viability, T/C [34]: 25.8%
viability, T/C [1]: 25.5%
viability, T/C [2]: 20.2%
viability, T/C [3]: 14.2%
viability, T/C [4]: 5.42%
viability, T/C [37]: 61.8%
viability, T/C [38]: 33%
viability, T/C [7]: 16.6%
viability, T/C [8]: 16.1%
viability, T/C [9]: 13.6%
viability, T/C [10]: 4.29%
viability, T/C [41]: 69.3%
viability, T/C [42]: 31.1%
viability, T/C [13]: 14.2%
viability, T/C [14]: 13.4%
viability, T/C [15]: 10.5%
viability, T/C [16]: 4.38%
viability, T/C [45]: 40.8%
viability, T/C [46]: 25%
viability, T/C [19]: 14.5%
viability, T/C [20]: 11.7%
viability, T/C [21]: 8.46%
viability, T/C [22]: 1.57%
viability, T/C [49]: 11.7%
viability, T/C [50]: 8.02%
viability, T/C [25]: 4.11%
viability, T/C [26]: 2.43%
viability, T/C [27]: 0.61%
viability, T/C [28]: 0.15%

COc1cc2nccc(Oc3ccc(NC(=O)C4(C(=O)Nc5ccc(F)cc5)CC4)cc3)c2cc1OC + COc1cc2nc(C)nc(NC(C)c3cc(N)cc(C(F)(F)F)c3)c2cc1OC1CCOC1
IC50 (second compound 0.1 µM): 936 nM
IC50 (second compound 0.316 µM): 732 nM
IC50 (second compound 1 µM): 656 nM
IC50 (second compound 3.16 µM): 611 nM
IC50 (second compound 10 µM): < 31.6 nM
viability, T/C [1]: 111%
viability, T/C [2]: 107%
viability, T/C [3]: 81.8%
viability, T/C [4]: 9.71%
viability, T/C [5]: 21.9%
viability, T/C [6]: 113%
viability, T/C [7]: 102%
viability, T/C [8]: 97.3%
viability, T/C [9]: 71.2%
viability, T/C [10]: 8.51%
viability, T/C [11]: 15.3%
viability, T/C [12]: 103%
viability, T/C [13]: 109%
viability, T/C [14]: 97.7%
viability, T/C [15]: 65.4%
viability, T/C [16]: 8.96%
viability, T/C [17]: 12.7%
viability, T/C [18]: 102%
viability, T/C [19]: 98.4%
viability, T/C [20]: 85.6%
viability, T/C [21]: 72.6%
viability, T/C [22]: 6.65%
viability, T/C [23]: 2.1%
viability, T/C [24]: 90.6%
viability, T/C [25]: 44.6%
viability, T/C [26]: 11.7%
viability, T/C [27]: 7.86%
viability, T/C [28]: 0.78%
viability, T/C [29]: 0.14%
viability, T/C [30]: 61.9%

Cn1ncnc1[C@H]1c2n[nH]c(=O)c3cc(F)cc(c23)N[C@@H]1c1ccc(F)cc1 + COc1cc2nc(C)nc(NC(C)c3cc(N)cc(C(F)(F)F)c3)c2cc1OC1CCOC1
IC50 (second compound 0.1 µM): > 100 nM
IC50 (second compound 0.316 µM): > 100 nM
IC50 (second compound 1 µM): > 100 nM
IC50 (second compound 3.16 µM): > 100 nM
IC50 (second compound 10 µM): < 0.316 nM
viability, T/C [31]: 103%
viability, T/C [32]: 99.9%
viability, T/C [33]: 100%
viability, T/C [34]: 95.8%
viability, T/C [1]: 91.6%
viability, T/C [2]: 82.4%
viability, T/C [35]: 97%
viability, T/C [36]: 92.7%
viability, T/C [37]: 97.2%
viability, T/C [38]: 89.5%
viability, T/C [7]: 88.3%
viability, T/C [8]: 81.1%
viability, T/C [39]: 97.3%
viability, T/C [40]: 97%
viability, T/C [41]: 93.9%
viability, T/C [42]: 87.5%
viability, T/C [13]: 83.4%
viability, T/C [14]: 77.7%
viability, T/C [43]: 92.5%
viability, T/C [44]: 88.6%
viability, T/C [45]: 86.3%
viability, T/C [46]: 85.2%
viability, T/C [19]: 74.1%
viability, T/C [20]: 78.1%
viability, T/C [47]: 36.2%
viability, T/C [48]: 20.6%
viability, T/C [49]: 23%
viability, T/C [50]: 23.2%
viability, T/C [25]: 31%
viability, T/C [26]: 24.3%
